Reference: patent USRE46630E1, “Substituted 4-pyridones and their use as inhibitors of neutrophil elastase activity” (Boehringer Ingelheim International GmbH, priority 2012, dated 2017)

Each compound was assayed against T1, Human neutrophil elastase (Homo sapiens, UniProt P08246) (assay: Human Neutrophil Elastase Assay). Conditions: Neutrophil Elastase assay; substrate MeOSuc-Ala-Ala-Pro-Val-AMC 250 μM; 15 min preincubation, 60 min incubation at room temperature; pH 7.5.
T1 construct: purchased Calbiochem 324681
T1 sequence (P08246 30-267): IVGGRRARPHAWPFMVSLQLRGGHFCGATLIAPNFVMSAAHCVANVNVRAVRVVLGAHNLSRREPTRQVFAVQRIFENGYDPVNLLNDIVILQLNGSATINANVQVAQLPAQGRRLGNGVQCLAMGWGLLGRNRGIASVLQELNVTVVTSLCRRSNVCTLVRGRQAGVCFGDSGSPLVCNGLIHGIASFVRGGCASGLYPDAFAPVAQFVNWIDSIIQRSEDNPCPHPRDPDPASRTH
Assay type: biochemical
Experimental: Human Neutrophil Elastase Assay
All other materials were of the highest grade commercially available.
The following buffers were used: Compound buffer: 100 mM Tris, 500 mM NaCl, adjusted to pH 7.5; Assay buffer: 100 mM Tris, 500 mM NaCl, adjusted to pH 7.5, containing 0.01% BSA.
Assay conditions: Test compounds were prediluted in DMSO and subsequently in compound buffer (5% DMSO final). […] After inactivation of the enzyme, fluorescence intensities were measured at 380 nm excitation and 460 nm emission wavelengths.
Each plate contains wells with a high value control (DMSO+enzyme+substrate) and wells with a low value control (DMSO+inactivated enzyme+substrate). […] Means of low values were taken as 0%, means of high values as 100%.

Structure (SMILES) | IC50
Cc1c(-c2cccc(C(F)(F)F)c2)c(=O)c(C(=O)NCCC(C)O)cn1C(C)c1ccc(C#N)cn1 (stereo not shown) [Example 47.4] | 0.0122 µM
Cc1c(-c2ccnc(C(F)(F)F)c2)c(=O)c(C(=O)NCCN(C)C)cn1C(C)c1ccc(C#N)cc1 (stereo not shown) [Example 9.10] | 0.0124 µM
Cc1c(-c2ccnc(C(F)(F)F)c2)c(=O)c(C(=O)NC2COCC2O)cn1C(C)c1ccc(C#N)cc1 (stereo not shown) [Example 9.40] | 0.0694 µM
CNC(=O)c1cn(C(C)c2ccc(C#N)cc2)c(C)c(-c2ccc(F)c(C(F)F)c2)c1=O (stereo not shown) [Example 28] | 0.0133 µM
Cc1c(-c2cccc(C(F)(F)F)c2)c(=O)c(C(=O)NCC(F)F)cn1C(C)c1ccc(C#N)cc1 (stereo not shown) [Example 7.20] | 0.0036 µM
Cc1c(-c2cccc(C(F)F)c2)c(=O)c(C(=O)NCc2ccnn2C)cn1C(C)c1ccc(C#N)cc1 (stereo not shown) [Example 8.16] | 0.0024 µM
CNC(=O)c1cn(Cc2ccc(Cl)cc2)c(C)c(-c2cccc(C(F)(F)F)c2)c1=O [Example 3.4] | 0.0291 µM
Cc1nnc(CNC(=O)c2cn(C(C)c3ccc(C#N)cc3)c(C)c(-c3cccc(C(F)F)c3)c2=O)o1 (stereo not shown) [Example 8.5] | 0.0012 µM
Cc1c(-c2cccc(C(F)(F)F)c2)c(=O)c(C(N)=O)cn1C(C)c1ccc(C#N)cc1 (stereo not shown) [Example 7.17] | 0.0185 µM
COCCCNC(=O)c1cn(C(C)c2ccc(C#N)cc2)c(C)c(-c2cccc(C(F)F)c2)c1=O (stereo not shown) [Example 8.25] | 0.0018 µM
Cc1nnc(CNC(=O)c2cn(C(C)c3ccc(C#N)cc3)c(C)c(-c3cccc(C(F)(F)F)c3)c2=O)o1 (stereo not shown) [Example 7.5] | 0.0014 µM
COCCNC(=O)c1cn(C(C)c2ccc(C#N)cc2)c(C)c(-c2cccc(C(F)F)c2)c1=O (stereo not shown) [Example 8.26] | 0.0018 µM
Cc1c(-c2cccc(C(F)(F)F)c2)c(=O)c(C(=O)NC(CO)CO)cn1Cc1ccc(C#N)cc1 [Example 1.19] | 0.0481 µM
Cc1c(-c2cccc(C(F)F)c2)c(=O)c(C(=O)NCc2ccno2)cn1C(C)c1ccc(C#N)cc1 (stereo not shown) [Example 8.17] | 0.0031 µM
Cc1c(-c2cccc(C(F)(F)F)c2)c(=O)c(C(=O)NC2CCC(=O)N(C)C2)cn1Cc1ccc(C#N)cc1 (stereo not shown) [Example 1.62] | 0.0104 µM
Cc1c(-c2ccnc(C(F)(F)F)c2)c(=O)c(C(=O)NC2CCCC2O)cn1C(C)c1ccc(C#N)cc1 (stereo not shown) [Example 9.36] | 0.0339 µM
Cc1c(-c2cccc(C(F)F)c2)c(=O)c(C(=O)NCCN(C)C)cn1C(C)c1ccc(C#N)cc1 (stereo not shown) [Example 8.11] | 0.0043 µM
Cc1c(-c2ccnc(C(F)(F)F)c2)c(=O)c(C(=O)NC2CCOC2)cn1C(C)c1ccc(C#N)cc1 (stereo not shown) [Example 9.34] | 0.0235 µM
Cc1c(-c2cccc(C(F)(F)F)c2)c(=O)c(C(=O)NC2CCNC2=O)cn1C(C)c1ccc(C#N)cc1 (stereo not shown) [Example 7.12] | 0.0015 µM
Cc1c(-c2cccc(C(F)F)c2)c(=O)c(C(=O)NC2CCNC2=O)cn1C(C)c1ccc(C#N)cc1 (stereo not shown) [Example 8.12] | 0.0014 µM
Cc1c(-c2cccc(C(F)(F)F)c2)c(=O)c(C(=O)NCC(C)(C)O)cn1C(C)c1ccc(C#N)cn1 (stereo not shown) [Example 47.11] | 0.0635 µM
Cc1c(-c2ccnc(C(F)(F)F)c2)c(=O)c(C(=O)NCC2CCOC2)cn1C(C)c1ccc(C#N)cc1 (stereo not shown) [Example 9.21] | 0.0095 µM
Cc1c(-c2cccc(C(F)(F)F)c2)c(=O)c(C(=O)NCCN2CCOCC2)cn1Cc1ccc(C#N)cc1 [Example 1.49] | 0.0104 µM
Cc1c(-c2cccc(C(F)(F)F)c2)c(=O)c(C(=O)NCC#N)cn1C(C)c1ccc(C#N)cn1 (stereo not shown) [Example 47.20] | 0.0025 µM
Cc1c(-c2cccc(C(F)(F)F)c2)c(=O)c(C(=O)NCC(C)(C)O)cn1C(C)c1ccc(C#N)cc1 (stereo not shown) [Example 7.15] | 0.0103 µM
Cc1c(-c2ccnc(C(F)(F)F)c2)c(=O)c(C(=O)NC2CCOCC2)cn1C(C)c1ccc(C#N)cc1 (stereo not shown) [Example 9.25] | 0.0114 µM

The remaining lines, values ahead:

IC50 | Structure (SMILES)
0.01 µM | CCOCCNC(=O)c1cn(Cc2ccc(C#N)cc2)c(C)c(-c2cccc(C(F)(F)F)c2)c1=O [Example 1.24]
0.0041 µM | Cc1c(-c2ccnc(C(F)(F)F)c2)c(=O)c(C(=O)NCCC#N)cn1C(C)c1ccc(C#N)cc1 (stereo not shown) [Example 9.54]
0.0225 µM | COC(=O)CNC(=O)c1cn(Cc2ccc(C#N)cc2)c(C)c(-c2cccc(C(F)(F)F)c2)c1=O [Example 1.63]
0.0014 µM | Cc1c(-c2cccc(C(F)(F)F)c2)c(=O)c(C(=O)NCc2ccc(S(C)(=O)=O)cc2)cn1Cc1ccc(C#N)nc1 [Example 2.4]
0.019 µM | Cc1c(-c2cccc(C(F)(F)F)c2)c(=O)c(C(=O)NCC(C)O)cn1Cc1ccc(C#N)cc1 (stereo not shown) [Example 1.23]
0.0144 µM | Cc1c(-c2cccc(C(F)(F)F)c2)c(=O)c(C(=O)NCCN2CCNC2=O)cn1Cc1ccc(C#N)cc1 [Example 1.21]
0.0037 µM | CNC(=O)c1cn(C(C)c2ccc(C#N)cc2)c(C)c(-c2ccnc(C(F)(F)F)c2)c1=O (single isomer, unassigned) [Example 9A]
0.0028 µM | Cc1c(-c2ccnc(C(F)(F)F)c2)c(=O)c(C(=O)NCc2ccc(S(C)(=O)=O)cc2)cn1Cc1ccc(C#N)cn1 [Example 5.1]
< 0.001 µM | Cc1c(-c2cccc(C(F)(F)F)c2)c(=O)c(C(=O)NCc2ccc(S(C)(=O)=O)cn2)cn1C(C)c1ccc(C#N)cc1 (stereo not shown) [Example 4.10]
0.0067 µM | Cc1c(-c2ccnc(C(F)(F)F)c2)c(=O)c(C(=O)NCc2ccnn2C)cn1C(C)c1ccc(C#N)cc1 (stereo not shown) [Example 9.16]
0.0106 µM | Cc1c(-c2cccc(C(F)(F)F)c2)c(=O)c(C(=O)NCCCCO)cn1Cc1ccc(C#N)cc1 [Example 1.20]
0.0033 µM | Cc1c(-c2ccnc(C(F)(F)F)c2)c(=O)c(C(=O)NCCS(C)(=O)=O)cn1C(C)c1ccc(C#N)cc1 (stereo not shown) [Example 9.2]
0.0218 µM | Cc1c(-c2cccc(C(F)(F)F)c2)c(=O)c(C(=O)NCCN2CCCC2=O)cn1Cc1ccc(C#N)cc1 [Example 1.28]
0.0104 µM | COCCNC(=O)c1cn(Cc2ccc(C#N)cc2)c(C)c(-c2cccc(C(F)(F)F)c2)c1=O [Example 1.5]
0.0079 µM | Cc1nnc(CNC(=O)c2cn(Cc3ccc(C#N)cc3)c(C)c(-c3cccc(C(F)(F)F)c3)c2=O)o1 [Example 1.15]
0.023 µM | Cc1c(-c2cccc(C(F)(F)F)c2)c(=O)c(C(=O)NCc2cncn2C)cn1Cc1ccc(C#N)cc1 [Example 1.32]
0.013 µM | COCCCNC(=O)c1cn(Cc2ccc(C#N)cc2)c(C)c(-c2cccc(C(F)(F)F)c2)c1=O [Example 1.3]
0.0038 µM | Cc1c(-c2cncc(Cl)c2)c(=O)c(C(=O)NCc2ccc(S(C)(=O)=O)cc2)cn1Cc1ccc(C#N)cc1 [Example 6.9]
0.0074 µM | Cc1c(-c2cccc(C(F)(F)F)c2)c(=O)c(C(=O)NCCCS(C)(=O)=O)cn1Cc1ccc(C#N)cc1 [Example 1.16]
< 0.001 µM | Cc1c(-c2ccnc(C(F)(F)F)c2)c(=O)c(C(=O)NCc2ccc(S(C)(=O)=O)cc2)cn1Cc1ccc(C#N)cc1 [Example 6.11]
0.0152 µM | Cc1c(-c2cccc(C(F)(F)F)c2)c(=O)c(C(=O)NCCO)cn1Cc1ccc(C#N)cc1 [Example 1.1, 1-(4-Cyano-benzyl)-6-methyl-4-oxo-5-(3-trifluoromethyl-phenyl)-1,4-dihydro-pyridine-3-carboxylic acid (2-hydroxy-ethyl)-amide]
0.0305 µM | Cc1c(-c2cccc(C(F)(F)F)c2)c(=O)c(C(=O)NCCN(C)C)cn1Cc1ccc(C#N)cc1 [Example 1.6]
0.0075 µM | Cc1c(-c2ccnc(C(F)(F)F)c2)c(=O)c(C(=O)NCC(N)=O)cn1C(C)c1ccc(C#N)cc1 (stereo not shown) [Example 9.18]
